Reference: US20100267561A1, “HERBICIDAL PYRIDAZINONE DERIVATIVES” (priority 2007, published 2010)

Columns and labels:
Format in all cases: in vivo
[1] = tested on: ducksalad (Heteranthera limosa); experiment: Test B flooded paddy test plant response
How it was run: (§1)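 Rice, umbrella sedge, ducksalad and barnyardgrass at 2-leaf stage; pots flooded to 3 cm, compounds applied into paddy water, depth held throughout. Greenhouse 13 to 15 days, then visual rating vs untreated controls on 0–100 scale (0 no effect, 100 complete control); dash means no test result.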

[2] = tested on: umbrella sedge (Cyperus difformis); experiment: Test B flooded paddy test plant response
How it was run: as §1

[3] = tested on: wild mustard (Sinapis arvensis); experiment: Test C pre-/postemergence plant response; conditions: Postemergence, scale 0 to 100, 0 no effect, 100 complete control
Text: (§2) Seeds of plant species selected from annual bluegrass (Poa annua), blackgrass (Alopecurus myosuroides), canola (Brassica rapa), downy bromegrass (Bromus tectorum), green foxtail (Setaria viridis), Italian ryegrass (Lolium multiflorum), canarygrass (Phalaris minor), pigweed (Amaranthus retroflexus), spring barley (Hordeum vulgare), spring wheat (Triticum aestivum), wild mustard (Sinapis arvensis), wild oat (Avena fatua), windgrass (Apera spica-venti), winter barley (Hordeum vulgare), and winter wheat (Triticum aestivum) were planted and treated preemergence with test chemicals formulated in a non-phytotoxic solvent mixture which included a surfactant. At the same time, plants selected from these crop and weed species were treated with postemergence applications of some of the test chemicals formulated in the same manner. Plants ranged in height from 2 to 18 cm (1- to 4-leaf stage) for postemergence treatments.
(§3) Treated plants and controls were maintained in a controlled growth environment for 15 to 25 days after which time all species were compared to controls and visually evaluated. Plant response ratings, summarized in Table C, are based on a scale of 0 to 100 where 0 is no effect and 100 is complete control. A dash (-) response means no test result.

[4] = tested on: winter wheat (Triticum aestivum); experiment: Test C pre-/postemergence plant response; conditions: Postemergence, scale 0 to 100, 0 no effect, 100 complete control
Text: as §2, §3

[5] = tested on: windgrass (Apera spica-venti); experiment: Test C pre-/postemergence plant response; conditions: Postemergence, scale 0 to 100, 0 no effect, 100 complete control
Text: as §2, §3

[6] = tested on: spring barley (Hordeum vulgare); experiment: Test C pre-/postemergence plant response; conditions: Postemergence, scale 0 to 100, 0 no effect, 100 complete control
Text: as §2, §3

[7] = tested on: blackgrass (Alopecurus myosuroides); experiment: Test C pre-/postemergence plant response; conditions: Postemergence, scale 0 to 100, 0 no effect, 100 complete control
Text: as §2, §3

[8] = tested on: downy bromegrass (Bromus tectorum); experiment: Test C pre-/postemergence plant response; conditions: Postemergence, scale 0 to 100, 0 no effect, 100 complete control
Text: as §2, §3

[9] = tested on: canarygrass (Phalaris minor); experiment: Test C pre-/postemergence plant response; conditions: Postemergence, scale 0 to 100, 0 no effect, 100 complete control
Text: as §2, §3

[10] = tested on: annual bluegrass (Poa annua); experiment: Test C pre-/postemergence plant response; conditions: Postemergence, scale 0 to 100, 0 no effect, 100 complete control
Text: as §2, §3

wild oat (Avena fatua) = experiment: Test C pre-/postemergence plant response; conditions: Postemergence, scale 0 to 100, 0 no effect, 100 complete control
Text: as §2, §3

[11] = tested on: pigweed (Amaranthus retroflexus); experiment: Test C pre-/postemergence plant response; conditions: Postemergence, scale 0 to 100, 0 no effect, 100 complete control
Text: as §2, §3

[12] = tested on: green foxtail (Setaria viridis); experiment: Test C pre-/postemergence plant response; conditions: Postemergence, scale 0 to 100, 0 no effect, 100 complete control
Text: as §2, §3

[13] = tested on: winter barley (Hordeum vulgare); experiment: Test C pre-/postemergence plant response; conditions: Postemergence, scale 0 to 100, 0 no effect, 100 complete control
Text: as §2, §3

[14] = tested on: spring wheat (Triticum aestivum); experiment: Test C pre-/postemergence plant response; conditions: Postemergence, scale 0 to 100, 0 no effect, 100 complete control
Text: as §2, §3

[15] = tested on: Italian ryegrass (Lolium multiflorum); experiment: Test C pre-/postemergence plant response; conditions: Postemergence, scale 0 to 100, 0 no effect, 100 complete control
Text: as §2, §3

[16] = Flood (flooded paddy test), 62 g ai/ha, scale 0 to 100, 0 no effect, 100 complete control
[17] = Flood (flooded paddy test), 125 g ai/ha, scale 0 to 100, 0 no effect, 100 complete control
[18] = Flood (flooded paddy test), 250 g ai/ha, scale 0 to 100, 0 no effect, 100 complete control
[19] = Flood, 31 g ai/ha, scale 0 to 100

CCc1cc(-c2ccc(Cl)c(Cl)c2)nn1-c1c(O)cnn(C)c1=O [Compound 20]
75: Plant response rating, Windgrass ([5]; 62 g ai/ha) | Plant response rating, Blackgrass ([7]; 62 g ai/ha) | Plant response rating, Canarygrass ([9]; 31 g ai/ha)
70: Plant response rating, Foxtail, Green ([12]; 16 g ai/ha)
80: Plant response rating, Foxtail, Green ([12]; 31 g ai/ha) | Plant response rating, Ryegrass, Italian ([15]; 16 g ai/ha)
0: Plant response rating, Ducksalad [1, 16] | Plant response rating, Ducksalad [1, 17] | Plant response rating, Ducksalad [1, 18] | Plant response rating, Ducksalad [1, 19] | Plant response rating, Sedge, Umbrella [2, 16] | Plant response rating, Sedge, Umbrella [2, 17] | Plant response rating, Sedge, Umbrella [2, 18] | Plant response rating, Sedge, Umbrella [2, 19] | Plant response rating, Mustard, Wild ([3]; 8 g ai/ha) | Plant response rating, Mustard, Wild ([3]; 16 g ai/ha) | Plant response rating, Mustard, Wild ([3]; 31 g ai/ha) | Plant response rating, Mustard, Wild ([3]; 62 g ai/ha) | Plant response rating, Wheat, Winter ([4]; 8 g ai/ha) | Plant response rating, Windgrass ([5]; 8 g ai/ha) | Plant response rating, Windgrass ([5]; 16 g ai/ha) | Plant response rating, Barley, Spring ([6]; 8 g ai/ha) | Plant response rating, Blackgrass ([7]; 8 g ai/ha) | Plant response rating, Bromegrass, Downy ([8]; 8 g ai/ha) | Plant response rating, Bromegrass, Downy ([8]; 16 g ai/ha) | Plant response rating, Bromegrass, Downy ([8]; 31 g ai/ha) | Plant response rating, Bluegrass ([10]; 8 g ai/ha) | Plant response rating, Bluegrass ([10]; 16 g ai/ha) | Plant response rating, Bluegrass ([10]; 31 g ai/ha) | Plant response rating, Bluegrass ([10]; 62 g ai/ha) | Plant response rating, Pigweed ([11]; 8 g ai/ha) | Plant response rating, Pigweed ([11]; 16 g ai/ha) | Plant response rating, Pigweed ([11]; 31 g ai/ha) | Plant response rating, Pigweed ([11]; 62 g ai/ha) | Plant response rating, Foxtail, Green ([12]; 8 g ai/ha) | Plant response rating, Barley, Winter ([13]; 8 g ai/ha) | Plant response rating, Barley, Winter ([13]; 16 g ai/ha) | Plant response rating, Wheat, Spring ([14]; 8 g ai/ha)
95: Plant response rating, Canarygrass ([9]; 62 g ai/ha) | Plant response rating, Ryegrass, Italian ([15]; 31 g ai/ha)
30: Plant response rating, Wheat, Winter ([4]; 31 g ai/ha)
65: Plant response rating, Ryegrass, Italian ([15]; 8 g ai/ha)
35: Plant response rating, Blackgrass ([7]; 16 g ai/ha) | Plant response rating, Canarygrass ([9]; 16 g ai/ha)
98: Plant response rating, Oat, Wild (wild oat (Avena fatua); 16 g ai/ha) | Plant response rating, Foxtail, Green ([12]; 62 g ai/ha) | Plant response rating, Ryegrass, Italian ([15]; 62 g ai/ha)
25: Plant response rating, Barley, Spring ([6]; 16 g ai/ha) | Plant response rating, Barley, Spring ([6]; 31 g ai/ha) | Plant response rating, Wheat, Spring ([14]; 16 g ai/ha) | Plant response rating, Wheat, Spring ([14]; 31 g ai/ha)
60: Plant response rating, Wheat, Winter ([4]; 62 g ai/ha) | Plant response rating, Blackgrass ([7]; 31 g ai/ha) | Plant response rating, Wheat, Spring ([14]; 62 g ai/ha)
20: Plant response rating, Wheat, Winter ([4]; 16 g ai/ha) | Plant response rating, Barley, Winter ([13]; 31 g ai/ha) | Plant response rating, Barley, Winter ([13]; 62 g ai/ha)
10: Plant response rating, Bromegrass, Downy ([8]; 62 g ai/ha) | Plant response rating, Canarygrass ([9]; 8 g ai/ha) | Plant response rating, Oat, Wild (wild oat (Avena fatua); 8 g ai/ha)
100: Plant response rating, Oat, Wild (wild oat (Avena fatua); 31 g ai/ha) | Plant response rating, Oat, Wild (wild oat (Avena fatua); 62 g ai/ha)
50: Plant response rating, Windgrass ([5]; 31 g ai/ha) | Plant response rating, Barley, Spring ([6]; 62 g ai/ha)
